Assay results taken from PubChem BioAssay (NCI).
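Cultured in 96-well plates, cells were exposed to test compound for 48 hours across five concentrations. GI50: concentration for 50% inhibition of growth. Definition used: TGI = concentration required for complete inhibition of growth.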

Key:
Test in all cases: NCI anticancer screen, dose series, 48 h
[1] = tested on: 786-0 renal
[2] = tested on: A498 renal
[3] = tested on: A549 NSCLC
[4] = tested on: ACHN renal
[5] = tested on: CAKI-1 renal
[6] = tested on: CCRF-CEM leukemia
[7] = tested on: COLO 205 colon
[8] = tested on: DLD-1 colon
[9] = tested on: DMS 114 small cell lung
[10] = tested on: DMS 273 small cell lung
[11] = tested on: EKVX NSCLC
[12] = tested on: HCC-2998 colon
[13] = tested on: HCT-116 colon
[14] = tested on: HCT-15 colon
[15] = tested on: HL-60(TB) leukemia
[16] = tested on: HOP-18 NSCLC
[17] = tested on: HOP-62 NSCLC
[18] = tested on: HOP-92 NSCLC
[19] = tested on: HT29 colon
[20] = tested on: IGROV1 ovarian
[21] = tested on: KM12 colon
[22] = tested on: KM20L2 colon
[23] = tested on: LOX IMVI melanoma
[24] = tested on: LXFL 529 NSCLC
[25] = tested on: M14 melanoma
[26] = tested on: M19-MEL melanoma
[27] = tested on: MALME-3M melanoma
[28] = tested on: MOLT-4 leukemia
[29] = tested on: NCI-H460 lung
[30] = tested on: NCI-H522 lung
[31] = tested on: OVCAR-3 ovarian
[32] = tested on: OVCAR-4 ovarian
[33] = tested on: OVCAR-5 ovarian
[34] = tested on: OVCAR-8 ovarian
[35] = tested on: RPMI-8226 leukemia
[36] = tested on: RXF 393 renal
[37] = tested on: SF-268 CNS
[38] = tested on: SF-295 CNS
[39] = tested on: SF-539 CNS
[40] = tested on: SK-MEL-28 melanoma
[41] = tested on: SK-MEL-5 melanoma
[42] = tested on: SK-OV-3 ovarian
[43] = tested on: SN12C renal
[44] = tested on: SNB-19 CNS
[45] = tested on: SNB-75 CNS
[46] = tested on: SNB-78 CNS
[47] = tested on: SR leukemia
[48] = tested on: SW-620 colon
[49] = tested on: TK-10 renal
[50] = tested on: U251 CNS
[51] = tested on: UACC-257 melanoma
[52] = tested on: UACC-62 melanoma
[53] = tested on: UO-31 renal
[54] = tested on: NCI-H226 lung
[55] = tested on: NCI-H23 lung
[56] = tested on: SK-MEL-2 melanoma
[57] = tested on: XF 498 CNS
[58] = tested on: K-562 leukemia

C[N+]1(C)C/C(=C\c2ccc(O)cc2)C(=O)/C(=C/c2ccc(O)cc2)C1
TGI [1]: > 100 µM | TGI [2]: > 100 µM | TGI [3]: > 100 µM | TGI [4]: > 100 µM | TGI [5]: > 100 µM | TGI [6]: > 100 µM | TGI [7]: > 100 µM | TGI [8]: > 100 µM | TGI [9]: > 100 µM | TGI [10]: > 100 µM | TGI [11]: > 100 µM | TGI [12]: > 100 µM | TGI [13]: > 100 µM | TGI [14]: > 100 µM | TGI [15]: > 100 µM | TGI [16]: > 100 µM | TGI [17]: > 100 µM | TGI [18]: > 100 µM | TGI [19]: > 100 µM | TGI [20]: > 100 µM | TGI [21]: > 100 µM | TGI [22]: > 100 µM | TGI [23]: > 100 µM | TGI [24]: > 100 µM | TGI [25]: > 100 µM | TGI [26]: > 100 µM | TGI [27]: > 100 µM | TGI [28]: > 100 µM | TGI [29]: > 100 µM | TGI [30]: > 100 µM | TGI [31]: > 100 µM | TGI [32]: > 100 µM | TGI [33]: > 100 µM | TGI [34]: > 100 µM | TGI [35]: > 100 µM | TGI [36]: > 100 µM | TGI [37]: > 100 µM | TGI [38]: > 100 µM | TGI [39]: > 100 µM | TGI [40]: > 100 µM | TGI [41]: > 100 µM | TGI [42]: > 100 µM | TGI [43]: > 100 µM | TGI [44]: > 100 µM | TGI [45]: > 100 µM | TGI [46]: > 100 µM | TGI [47]: > 100 µM | TGI [48]: > 100 µM | TGI [49]: > 100 µM | TGI [50]: > 100 µM | TGI [51]: > 100 µM | TGI [52]: > 100 µM | TGI [53]: > 100 µM

Cc1cc(Cl)cc2c1NC(=O)C2(O)CC(=O)c1ccc(F)cc1 (stereo unspecified)
TGI [1]: > 100 µM | TGI [3]: 81.1 µM | TGI [4]: > 100 µM | TGI [5]: > 100 µM | TGI [7]: > 100 µM | TGI [8]: > 100 µM | TGI [10]: > 100 µM | TGI [11]: > 100 µM | TGI [12]: > 100 µM | TGI [13]: > 100 µM | TGI [14]: > 100 µM | TGI [16]: 90.7 µM | TGI [17]: > 100 µM | TGI [18]: > 100 µM | TGI [19]: > 100 µM | TGI [20]: > 100 µM | TGI [21]: > 100 µM | TGI [22]: > 100 µM | TGI [23]: > 100 µM | TGI [25]: > 100 µM | TGI [26]: 17.9 µM | TGI [27]: 75.1 µM | TGI [54]: > 100 µM | TGI [55]: > 100 µM | TGI [29]: > 100 µM | TGI [31]: 96.5 µM | TGI [32]: 98.1 µM | TGI [33]: > 100 µM | TGI [34]: > 100 µM | TGI [35]: 65.3 µM | TGI [36]: 41.5 µM | TGI [37]: > 100 µM | TGI [38]: > 100 µM | TGI [39]: > 100 µM | TGI [56]: > 100 µM | TGI [40]: > 100 µM | TGI [42]: > 100 µM | TGI [43]: > 100 µM | TGI [44]: > 100 µM | TGI [45]: > 100 µM | TGI [46]: > 100 µM | TGI [48]: > 100 µM | TGI [49]: > 100 µM | TGI [50]: > 100 µM | TGI [51]: > 100 µM | TGI [52]: 42 µM | TGI [53]: > 100 µM | TGI [57]: 66.4 µM

O=C([CH-]C(=O)c1ccccc1)c1ccccc1.[CH3-].[CH3-].[CH3-].[Sn+4]
GI50 [1]: 10.2 µM | TGI [1]: 33.1 µM | GI50 [2]: 35.4 µM | TGI [2]: > 100 µM | GI50 [3]: 17.1 µM | TGI [3]: > 100 µM | GI50 [4]: 21 µM | TGI [4]: > 100 µM | GI50 [5]: 13.6 µM | TGI [5]: > 100 µM | GI50 [7]: 17.8 µM | TGI [7]: 35.8 µM | GI50 [11]: 33.1 µM | TGI [11]: > 100 µM | GI50 [12]: 18.7 µM | TGI [12]: 47.5 µM | GI50 [13]: 5.95 µM | TGI [13]: 19.1 µM | GI50 [14]: 5.51 µM | TGI [14]: 27.3 µM | GI50 [15]: 2.67 µM | TGI [15]: 16 µM | GI50 [16]: 39 µM | TGI [16]: > 100 µM | GI50 [17]: 22.9 µM | TGI [17]: 94.9 µM | GI50 [18]: 27.8 µM | TGI [18]: 67.3 µM | GI50 [19]: 19.2 µM | TGI [19]: 60.3 µM | GI50 [20]: 33.1 µM | TGI [20]: > 100 µM | GI50 [58]: 4.92 µM | TGI [58]: 23.6 µM | GI50 [21]: 18.1 µM | TGI [21]: > 100 µM | GI50 [22]: 16.3 µM | TGI [22]: 58 µM | GI50 [23]: 7.95 µM | TGI [23]: 25.9 µM | GI50 [25]: 14.7 µM | TGI [25]: 29.5 µM | GI50 [27]: 10.7 µM | TGI [27]: 29.6 µM | GI50 [28]: 3.18 µM | TGI [28]: 13.6 µM | GI50 [54]: 6.62 µM | TGI [54]: 65.7 µM | GI50 [55]: 18.4 µM | TGI [55]: 63.4 µM | GI50 [29]: 6.89 µM | TGI [29]: > 100 µM | GI50 [30]: 11.8 µM | TGI [30]: 24.2 µM | GI50 [31]: 12.7 µM | TGI [31]: 71.8 µM | GI50 [32]: 8.81 µM | TGI [32]: 56.1 µM | GI50 [33]: 37.2 µM | TGI [33]: 86.5 µM | GI50 [34]: 8.25 µM | TGI [34]: 53.8 µM | GI50 [35]: 4.99 µM | TGI [35]: 26.2 µM | GI50 [36]: 10.6 µM | TGI [36]: 31.9 µM | GI50 [37]: 12.9 µM | TGI [37]: 81.3 µM | GI50 [38]: 6.68 µM | TGI [38]: 31.5 µM | GI50 [39]: 21.7 µM | TGI [39]: > 100 µM | GI50 [56]: 7.68 µM | TGI [56]: 56.9 µM | GI50 [40]: 15.6 µM | TGI [40]: 47.1 µM | GI50 [41]: 8.21 µM | TGI [41]: 35.1 µM | GI50 [42]: 27.1 µM | TGI [42]: 70.1 µM | GI50 [43]: 17.3 µM | TGI [43]: > 100 µM | GI50 [44]: 14.8 µM | TGI [44]: 73 µM | GI50 [45]: 19.4 µM | TGI [45]: > 100 µM | GI50 [47]: 1.93 µM | TGI [47]: 11.5 µM | GI50 [48]: 12.3 µM | TGI [48]: 26 µM | GI50 [49]: 31.7 µM | TGI [49]: 84.9 µM | GI50 [50]: 6.87 µM | TGI [50]: 52 µM | GI50 [51]: 22.2 µM | TGI [51]: 60.8 µM | GI50 [52]: 12.2 µM | TGI [52]: 65.8 µM | GI50 [53]: 12 µM | TGI [53]: 40.4 µM
